Tests used:
[1] = tested on: white clover (Trifolium repens) seedlings; assay: Primary root length of white clover seedlings under salt stress (Example 3); type: in vivo; details: porphyrin 0.01% v/v, 7 days after germination, mean ± standard error
Procedure: In this example, the effect of porphyrin compounds on the sensitivity to salt stress of seedlings was evaluated. […] For exposure to salt, the water was adjusted to contain 100 mM NaCl. […] Salt stress tolerance was measured by determining the reduction of primary root length by analysis of pictures with the Image J™ software. Root lengths (mm) were measured 7 days after the germination. The following Table 3 summarizes the results.

[2] = tested on: Arabidopsis thaliana; assay: Plant senescence triggered by salt stress, visual rating (Example 2); type: in vivo; design: key to Ratings at 14 days: 9: Normal growth, no leaf symptoms; 7: Nearly normal growth with some leaves and tips yellow and rolled; 4: Growth severely inhibited, significant yellowing of the leaves with most leaves rolled; 2: Complete growth arrest with most of the leaves dried and some plants dead; details: for % improvement: % senescence improvement relative to untreated control, 14 days; for Ratings at 14 days: visual leaf senescence score, salt stress 100, 200, 300 mM NaCl, percentages wt % of total composition
Procedure: In this example, the effect of metalized chlorin compounds and various additives on Arabidopsis thaliana senescence triggered by salt stress was measured by a visual rating scale reflecting progressive leaf senescence symptoms. […] It was also shown that the addition of oil, in particular poly-alpha-olefin (PAO), chelating agents or combinations thereof, further increased the protection. After prolonged exposure to salt stress, Na^+ accumulation in the shoot results in cytotoxic effects, whereby the most visible symptom is yellowing, followed by drying of leaves, due to leaf senescence and death. Leaf senescence may be evaluated by visual scoring reflecting progressive leaf senescence symptoms. [table] […] All percentage values in the Table are in wt % of total composition.

[3] = tested on: Arabidopsis thaliana seedlings; assay: Primary root length of Arabidopsis seedlings under salt stress (Example 1); type: in vivo; details: for Root length (mm): 10 μM CuChln in media, 10 days after germination, mean ± standard error
Procedure: Experiments were conducted to evaluate the effect of metallized chlorin compounds on salt stress treated seedlings, by measuring of primary root length. Copper chlorophyllin (CuChIn) was supplemented to the media onto which Arabidopsis thaliana seeds germinated. […] For exposure to salt, media was adjusted to contain 100 mM NaCl. For exposure to CuChIn, CuChIn was prepared as a 1 mM stock in water and was added to the media at 10 μM CuChIn final concentration. […] Arabidopsis seedlings were grown vertically at a temperature of 24±1° C., under LED lights (PAR 24 μmol m^−2/s^−1) and 16 hours:8 hours, light:dark photoperiod. Salt stress tolerance was measured by determining the reduction of primary root lengths.

[4] = tested on: Arabidopsis seedlings; assay: Pigment content under photooxidative conditions (Example 6); type: in vivo, Arabidopsis thaliana
Procedure: In this example, the effect of chlorin compounds on the pigment content of seedlings grown under photooxidative conditions was evaluated. In particular, the effect of CuChIn on the pigment content of Arabidopsis seedlings grown under photooxidative conditions was evaluated. To do so, the pigments were extracted and quantified. It was shown that CuChIn supplemented plants retained more pigments under this type of stress. […] In this experiment, to determine the effect of CuChIn on the pigment content, seedlings were grown as in Example 1, except that the plants were transferred under LED lights (PAR 142 μmol m^-2 s^-1) one week after germination. 14 days old seedlings were then harvested and weighted. The tissue was ground in liquid nitrogen. […] The pigment concentrations were determined spectrophotometrically and calculated using the following formulas known to those skilled in the art (i.e. Sumanta et al., 2014):Ch-a=16.72A665.2-9.16A652. (for chlorophyll a); Ch-b=34.09[…]=(1000A470-1.63Ca-104.96Cb)/221 (for carotenoids) and […]-(1⁄4×[…]) (for anthocyanins) (A=absorbance). The data is expressed as means±standard error.

[5] = tested on: tomato plants cv. Tumbling Tom; assay: Tomato plants tolerance to drought stress (Example 9); type: in vivo; details: Table 9C
Procedure: In this example, the effects of chlorin compounds and formulations were tested on tomato plants cv. Tumbling Tom. The experiments were carried out in a greenhouse. Tests were designed to determine the activity of compounds on tomato plants tolerance to drought stress. In the experiments, tomato plants cv. […] Foliar treatments were applied 3 times with 7 days interval. 5 replications per treatment were used.

[6] = tested on: Tomato cultivar “Tiny Tim”; assay: Tomato plant tolerance to heat stress (Example 19); type: in vivo; details: for Above ground plant biomass. Dry weight Total shoots / Roots dry weight / Above ground plant biomass, Fresh weight, Total shoots: heat stress 38° C., two foliar applications; for Above ground plant biomass. Dry weight Total shoots: harvest 27 days after first treatment, per plant; for Roots dry weight / Above ground plant biomass, Fresh weight, Total shoots: tomato; for Above ground plant biomass, Fresh weight, Total shoots: 27 days after first treatment; for Roots dry weight, % increase / Total shoots dry weight % increase / Total shoots fresh weight, % increase: vs Heat stress Control
Procedure: In this example, the effects of chlorin compounds and formulations were tested on Tomato cultivar “Tiny Tim” (Stokes seeds, Ontario, Canada). Several experiments were conducted in the greenhouse and Growth Chamber. The tests were designed to determine the activity of compounds on tomato plants tolerance to heat stress. In the experiments, Tomato transplants were grown in 6″ plastic pots filled with professional soil mix to 5-6 leaves stage in the greenhouse at 22° C.-25° C. and 8 h dark/16 h light photoperiod respectively. […] The Tomato plants were treated with two foliar applications of different formulations providing an even coverage (until run-off) using hand hold Spray bottle (Continental E-Z sprayer). Plants were treated with compounds two times with 7 days interval. Twenty four hours after the first foliar spray plants were placed into a Growth chamber and exposed to temperature stress (heat stress) for 10 days. […] After second foliar spray plants were placed for a second time into the Growth chamber and exposed to temperature stress (heat stress) for another 10 days. The Tomato plants were regularly watered to avoid water deficit. The Growth chamber was set at 16 h light/8 h dark photoperiod, illumination at 300 μmol·m^−2 s^−1 during the light photoperiod and 70% relative humidity. Temperature regime in the Growth chamber was set at 25° C. during the dark. […] Plants were moved from the Growth Chamber to the greenhouse and maintained in the greenhouse for four days prior to harvest. Twenty-seven days after the first treatment, plants were harvested, and biomass were recorded. Untreated plants—Heat stress Control was used as a reference for each measurement respectively. The experiments were set out in a completely randomized design with 6 replications for each treatment.

[7] = tested on: Arabidopsis thaliana; assay: Effect of different oil on Arabidopsis senescence under salt stress (Example 24); details: in vivo
Procedure: The experimental protocol is the same as that of Example 2. In this example, the effect of metalized chlorin compounds and various oils on Arabidopsis thaliana senescence triggered by salt stress was measured by a visual rating scale reflecting progressive leaf senescence symptoms. […] It was also shown that the addition of oil further increased the protection. After prolonged exposure to salt stress, Na^+ accumulation in the shoot results in cytotoxic effects, whereby the most visible symptom is yellowing, followed by drying of leaves, due to leaf senescence and death. Leaf senescence may be evaluated by visual scoring reflecting progressive leaf senescence symptoms.

[8] = 20 μM CuChln, photooxidative conditions, 14 days old seedlings, mean ± standard error
[9] = foliar spray, vs drought control

## C=CC1=C(C)c2cc3[n-]c(cc4[n-]c(cc5nc(cc1n2)C(C)=C5C=C)c(C)c4CCC(=O)O)c(CCC(=O)O)c3C.[Zn+2] [ZnPP9, zinc protoporphyrin-IX]
[1]; 0 mM NaCl
  Root length (mm): 1.01 ± 0.08 mm
[1]; 100 mM NaCl
  Root length (mm): 0.8 ± 0.08 mm

## O=C(O)CC(NCCNC(CC(=O)O)C(=O)O)C(=O)O (stereo not shown) [5 mM EDDS, ethylenediamine-N,N′-disuccinic acid, reference compound]
[2]
  % improvement: 14.4%
  Ratings at 14 days: 4

## copper chlorophyllin [CuChln]
[3]; 0 mM NaCl
  Root length (mm): 5.05 ± 0.09 mm
[3]; 10 μM CuChIn, no salt
  influence on root length in the control experiment: did not influence the root length
[3]; 100 mM NaCl
  Root length (mm): 3.16 ± 0.14 mm
[3]; CuChIn supplemented media
  salt tolerance vs untreated plants: more salt tolerant than untreated plants
[2]
  % improvement: 28.7%
  Ratings at 14 days: 4.5
[2]; in vivo
  protection against senescence triggered by salt stress: provides protection against plants senescence triggered by salt stress
[4]; [8]
  Anthocyanins: 0.08 ± 0.05 µg/mL
  Ch-a: 6.62 ± 0.8 µg/mL
  Ch-b: 2.28 ± 0.14 µg/mL
  Cx + c (carotenoids): 1.56 ± 0.25 µg/mL
[4]; in vivo
  pigments retained under photooxidative conditions: retain more pigments than untreated plants
[5]; [9]
  Shoots Dry weight % increase: 4%
  Shoots Fr. weight % increase: 29.6%
[5]; prolonged drought, foliar spray 3 times
  Plant vigor Score 1-5: 4.6
[5]; prolonged drought, foliar spray 3 times with 7 days interval, Rate, %: CuChln 0.1, PAO488 + CuChln 0.5 + 0.1
  Shoots Fr. weight: 8.7 g
[5]; prolonged drought, foliar spray 3 times, Rate, %: CuChln 0.1, PAO488 + CuChln 0.5 + 0.1
  Shoots Dry weight: 0.84 g
[6]
  Above ground plant biomass. Dry weight Total shoots: 4.92 g
  Roots dry weight: 1.17 g/plant−^1
  Above ground plant biomass, Fresh weight, Total shoots: 37.17 g/plant^−1
  Roots dry weight, % increase: 26%
  Total shoots dry weight % increase: 10%
  Total shoots fresh weight, % increase: 11%
[7]
  protection against senescence triggered by salt stress: provided protection against senescence triggered by salt stress

## O=C([O-])CC(NC(CC(=O)[O-])C(=O)[O-])C(=O)[O-].[Na+].[Na+].[Na+].[Na+] (stereo not shown) [0.25% Baypure CX100 ™, tetrasodium iminodisuccinate]
[2]
  % improvement: 14.4%
  Ratings at 14 days: 4

## ethylenediaminetetraacetic acid-Ca [reference compound]
[2]
  % improvement: 14.4%
  Ratings at 14 days: 4

## O=C([O-])CN(CCN(CC(=O)[O-])CC(=O)[O-])CC(=O)[O-].[Ca+2].[Ca+2] [0.05% Ca2EDTA, reference compound]
[6]
  Above ground plant biomass. Dry weight Total shoots: 4.72 g
  Roots dry weight: 1.07 g/plant−^1
  Above ground plant biomass, Fresh weight, Total shoots: 34.62 g/plant^−1
  Roots dry weight, % increase: 15%
  Total shoots dry weight % increase: 6%
  Total shoots fresh weight, % increase: 3%

## C=CC1=C(C)c2cc3[nH]c(cc4nc(cc5[nH]c(cc1n2)c(C)c5CCC(=O)O)C(CCC(=O)O)=C4C)c(C)c3C=C [PP9, protoporphyrin-IX]
[1]; 0 mM NaCl
  Root length (mm): 1.04 ± 0.05 mm
[1]; 100 mM NaCl
  Root length (mm): 0.7 ± 0.08 mm

— patent publication US20210352889A1, “MACROCYCLIC TETRAPYRROLE COMPOUNDS, COMPOSITIONS AND METHODS FOR INCREASING ABIOTIC STRESS RESISTANCE IN PLANTS” (SUNCOR ENERGY INC., priority 2018, published 2021)
